Results as given in US8324390B2, “Tetrazole-substituted anthranilamides as pesticides” (Bayer CropScience AG, priority 2008, dated 2012).
Read-outs that look alike come from different tables or passages of the source.

Assays:
[1] = log P determination by HPLC (EEC Directive 79/831 Annex V.A8); format: physicochemical
Description: The measurements were carried out using an Agilent 1100 LC system with a 50*4.6 Zorbax Eclipse C18 1.8 μm column (oven temperature 55° C., flow rate 2.0 ml/min).
The following mobile phases were used:
Mobile phase A: acetonitrile+1000 μl of formic acid/l
Mobile phase B: Millipore water+900 μl of formic acid/l

[2] = tested on: caterpillars of the armyworm (Spodoptera frugiperda); assay: Spodoptera frugiperda test (SPODFR spray treatment); format: in vivo; details: Spodoptera frugiperda, foliar, read-out: effect in % (caterpillars killed)
Text: Solvent: 78.0 parts by weight of acetone

[3] = tested on: larvae of the mustard beetle (Phaedon cochleariae); assay: Phaedon test (PHAECO spray treatment); details: for pest or weed control at 100 g/ha: Phaedon cochleariae, in Brassica rapa, foliar, read-out: effect in % (beetle larvae killed)
[4] = reversed-phase HPLC, Zorbax Eclipse C18 column, determined by HPLC according to EEC Directive 79/831 Annex V.A8, read-out: log P
[5] = application rate 100 g/ha, maize leaf discs
[6] = reversed-phase HPLC, Zorbax Eclipse C18 column, by HPLC according to EEC Directive 79/831 Annex V.A8, read-out: log P
[7] = by HPLC according to EEC Directive 79/831 Annex V.A8, read-out: log P

SMILES: CNC(=O)c1cc(Cl)cc(C)c1NC(=O)c1cc(Cn2nnnc2C(F)(F)F)nn1-c1cc(Cl)ccc1Cl [Example 473]
- chromatographic logP [1, 4]: 3.52
- pest or weed control at 100 g/ha [2, 5]: ≥ 80%
- pest or weed control at 100 g/ha [3]: ≥ 80%

SMILES: CNC(=O)c1cc(C#N)cc(C)c1NC(=O)c1cc(Cn2nnc(C(F)(F)F)n2)nn1-c1ncccc1Cl [Example 12]
- chromatographic logP [1, 6]: 2.66
- pest or weed control at 100 g/ha ([2]; in Zea mays): ≥ 80%
- pest or weed control at 100 g/ha [3]: ≥ 80%

SMILES: Cc1cc(Cl)cc(C(=O)NC(C)(C)C)c1NC(=O)c1cc(Cn2nnc(C(F)(C(F)(F)F)C(F)(F)F)n2)nn1-c1ncccc1Cl [Example 362]
- chromatographic logP [1, 6]: 4.56
- pest or weed control at 100 g/ha [2, 5]: ≥ 80%
- pest or weed control at 100 g/ha [3]: ≥ 80%

SMILES: Cc1cc(Br)cc(C(=O)NCC#N)c1NC(=O)c1cc(Cn2nnc(C(F)(F)F)n2)nn1-c1ncccc1C(F)(F)F [Example 248]
- chromatographic logP [1, 6]: 3.21
- pest or weed control at 100 g/ha [2, 5]: ≥ 80%
- pest or weed control at 100 g/ha [3]: ≥ 80%

SMILES: Cc1cc(C)c(NC(=O)c2cc(Cn3nnc(C(F)(F)F)n3)nn2-c2ncccc2Cl)c(C(=O)NC2CCC2)c1 [Example 84]
- chromatographic logP ([1]; log P): 3.42
- pest or weed control at 100 g/ha ([2]; in Zea mays): ≥ 80%
- pest or weed control at 100 g/ha [3]: ≥ 80%

SMILES: CCNC(=O)c1cc(I)cc(C)c1NC(=O)c1cc(Cn2nnnc2C(F)(F)F)nn1-c1ncccc1C(F)(F)F [Example 457]
- chromatographic logP [1, 4]: 3.3
- pest or weed control at 100 g/ha [2, 5]: ≥ 80%
- pest or weed control at 100 g/ha [3]: ≥ 80%

SMILES: Cc1cc(I)cc(C(=O)NC2CC2)c1NC(=O)c1cc(Cn2nnc(C(F)(C(F)(F)F)C(F)(F)F)n2)nn1-c1ncccc1Cl [Example 379]
- chromatographic logP ([1]; log P): 4.18
- pest or weed control at 100 g/ha ([2]; in Zea mays): ≥ 80%
- pest or weed control at 100 g/ha [3]: ≥ 80%

SMILES: O=C(NC1CC1)c1cc(Cl)cc(Cl)c1NC(=O)c1cc(Cn2nnc(C(F)(F)F)n2)nn1-c1ncccc1Cl [Example 57]
- chromatographic logP ([1]; log P): 3.18
- pest or weed control at 100 g/ha ([2]; in Zea mays): ≥ 80%
- pest or weed control at 100 g/ha [3]: ≥ 80%

SMILES: Cc1cc(C#N)cc(C(=O)NC(C)(C)C)c1NC(=O)c1cc(Cn2nnc(C(F)(F)C(F)(F)C(F)(F)F)n2)nn1-c1ncccc1Cl [Example 108]
- chromatographic logP [1, 7]: 4.16
- pest or weed control at 100 g/ha ([2]; in Zea mays): ≥ 80%
- pest or weed control at 100 g/ha [3]: ≥ 80%

SMILES: CCC(C)NC(=O)c1cc(Cl)cc(C)c1NC(=O)c1cc(Cn2nnc(C(F)(F)F)n2)nn1-c1ncccc1Cl (centres unmarked) [Example 36]
- chromatographic logP ([1]; log P): 3.74
- pest or weed control at 100 g/ha ([2]; in Zea mays): ≥ 80%
- pest or weed control at 100 g/ha [3]: ≥ 80%

SMILES: Cc1cc(C#N)cc(C(=O)NC(C)(C)C)c1NC(=O)c1cc(Cn2nnc(C(F)(F)F)n2)nn1-c1ccc(Cl)cc1 [Example 527]
- chromatographic logP [1, 4]: 4.16
- pest or weed control at 100 g/ha [2, 5]: ≥ 80%
- pest or weed control at 100 g/ha [3]: ≥ 80%

SMILES: Cc1cc(Cl)cc(C(=O)NC(C)(C)C)c1NC(=O)c1cc(Cn2nnc(C(F)(F)C(F)(F)C(F)(F)F)n2)nn1-c1ncccc1Cl [Example 107]
- chromatographic logP [1, 7]: 4.6
- pest or weed control at 100 g/ha ([2]; in Zea mays): ≥ 80%
- pest or weed control at 100 g/ha [3]: ≥ 80%

SMILES: CCNC(=O)c1cc(Cl)cc(Cl)c1NC(=O)c1cc(Cn2nnc(C(F)(F)F)n2)nn1-c1ncccc1Cl [Example 58]
- chromatographic logP ([1]; log P): 3.17
- pest or weed control at 100 g/ha ([2]; in Zea mays): ≥ 80%
- pest or weed control at 100 g/ha [3]: ≥ 80%

SMILES: Cc1cc(Cl)cc(C(=O)NC2CC2)c1NC(=O)c1cc(Cn2nnc(C(F)(F)C(F)(F)F)n2)nn1-c1ncccc1Cl [Example 127]
- chromatographic logP ([1]; log P): 3.7
- pest or weed control at 100 g/ha ([2]; in Zea mays): ≥ 80%
- pest or weed control at 100 g/ha [3]: ≥ 80%

SMILES: NC(=O)c1cc(Cl)cc(Cl)c1NC(=O)c1cc(Cn2nnc(C(F)(F)C(F)(F)F)n2)nn1-c1ncccc1Cl [Example 155]
- chromatographic logP ([1]; log P): 3.13
- pest or weed control at 100 g/ha ([2]; in Zea mays): ≥ 80%
- pest or weed control at 100 g/ha [3]: ≥ 80%

SMILES: Cc1cc(I)cc(C(=O)NC(C)C2CC2)c1NC(=O)c1cc(Cn2nnc(C(F)(F)F)n2)nn1-c1ncccc1Cl (centres unmarked) [Example 68]
- chromatographic logP ([1]; log P): 4.01
- pest or weed control at 100 g/ha ([2]; in Zea mays): ≥ 80%
- pest or weed control at 100 g/ha [3]: ≥ 80%

SMILES: Cc1cc(C#N)cc(C(=O)NC(C)C2CC2)c1NC(=O)c1cc(Cn2nnnc2C(F)(F)F)nn1-c1ncccc1Cl (centres unmarked) [Example 185]
- chromatographic logP ([1]; log P): 3
- pest or weed control at 100 g/ha ([2]; in Zea mays): ≥ 80%
- pest or weed control at 100 g/ha [3]: ≥ 80%

SMILES: Cc1cc(C#N)cc(C(=O)NC2CCC2)c1NC(=O)c1cc(Cn2nnc(C(F)(F)C(F)(F)F)n2)nn1-c1ncccc1Cl [Example 139]
- chromatographic logP ([1]; log P): 3.61
- pest or weed control at 100 g/ha ([2]; in Zea mays): ≥ 80%
- pest or weed control at 100 g/ha [3]: ≥ 80%

SMILES: O=C(NCC1CC1)c1cc(Cl)cc(Cl)c1NC(=O)c1cc(Cn2nnc(C(F)(F)C(F)(F)F)n2)nn1-c1ncccc1Cl [Example 156]
- chromatographic logP ([1]; log P): 3.88
- pest or weed control at 100 g/ha ([2]; in Zea mays): ≥ 80%
- pest or weed control at 100 g/ha [3]: ≥ 80%

SMILES: Cc1cc(C)c(NC(=O)c2cc(Cn3nnc(C(F)(F)F)n3)nn2-c2ncccc2Cl)c(C(=O)NC2CC2)c1 [Example 119]
- chromatographic logP ([1]; log P): 3.04
- pest or weed control at 100 g/ha ([2]; in Zea mays): ≥ 80%
- pest or weed control at 100 g/ha [3]: ≥ 80%

SMILES: CCNC(=O)c1cc(C#N)cc(C)c1NC(=O)c1cc(Cn2nnc(C(F)(F)F)n2)nn1-c1ncccc1C(F)(F)F [Example 234]
- chromatographic logP [1, 6]: 3.07
- pest or weed control at 100 g/ha [2, 5]: ≥ 80%
- pest or weed control at 100 g/ha [3]: ≥ 80%

SMILES: CNC(=O)c1cc(Cl)cc(C)c1NC(=O)c1cc(Cn2nnc(C(F)(F)F)n2)nn1-c1ncccc1Br [Example 331]
- chromatographic logP [1, 6]: 3.01
- pest or weed control at 100 g/ha [2, 5]: ≥ 80%
- pest or weed control at 100 g/ha [3]: ≥ 80%

SMILES: Cc1cc(Cl)cc(C(=O)NC2CCC2)c1NC(=O)c1cc(Cn2nnc(C(F)F)n2)nn1-c1ncccc1Cl [Example 260]
- chromatographic logP ([1]; log P): 3.09
- pest or weed control at 100 g/ha ([2]; in Zea mays): ≥ 80%
- pest or weed control at 100 g/ha [3]: ≥ 80%

SMILES: Cc1cc(C#N)cc(C(=O)NCC2CC2)c1NC(=O)c1cc(Cn2nnc(C(F)(F)C(F)(F)F)n2)nn1-c1ncccc1Cl [Example 138]
- chromatographic logP ([1]; log P): 3.56
- pest or weed control at 100 g/ha ([2]; in Zea mays): ≥ 80%
- pest or weed control at 100 g/ha [3]: ≥ 80%

SMILES: Cc1cc(I)cc(C(=O)NCC2CC2)c1NC(=O)c1cc(Cn2nnc(C(F)(F)F)n2)nn1-c1ncccc1Cl [Example 73]
- chromatographic logP ([1]; log P): 3.78
- pest or weed control at 100 g/ha ([2]; in Zea mays): ≥ 80%
- pest or weed control at 100 g/ha [3]: ≥ 80%

SMILES: Cc1cc(I)cc(C(=O)NC(C)(C)C)c1NC(=O)c1cc(Cn2nnc(C(F)(F)F)n2)nn1-c1ncccc1Br [Example 352]
- chromatographic logP [1, 6]: 4.09
- pest or weed control at 100 g/ha [2, 5]: ≥ 80%
- pest or weed control at 100 g/ha [3]: ≥ 80%

SMILES: Cc1cc(C#N)cc(C(=O)NC(C)C2CCC2)c1NC(=O)c1cc(Cn2nnnc2C(F)(F)F)nn1-c1ncccc1Cl (centres unmarked) [Example 194]
- chromatographic logP ([1]; log P): 3.25
- pest or weed control at 100 g/ha [3]: ≥ 80%

SMILES: Cc1cc(C#N)cc(C(=O)NC(C)CC(F)(F)F)c1NC(=O)c1cc(Cn2nnc(C(F)(F)F)n2)nn1-c1ncccc1Cl (centres unmarked) [Example 75]
- chromatographic logP ([1]; log P): 3.38
- pest or weed control at 100 g/ha [3]: ≥ 80%

SMILES: CCOC1CCC(NC(=O)c2cc(C#N)cc(C)c2NC(=O)c2cc(Cn3nnc(C(F)(F)F)n3)nn2-c2ncccc2Cl)CC1 (centres unmarked) [Example 344]
- chromatographic logP [1, 6]: 3.6
- pest or weed control at 100 g/ha [3]: ≥ 80%

SMILES: Cc1cc(I)cc(C(=O)NC2CCC2)c1NC(=O)c1cc(Cn2nnc(C(F)(F)F)n2)nn1-c1ncccc1Cl [Example 72]
- chromatographic logP ([1]; log P): 3.85
- pest or weed control at 100 g/ha [3]: ≥ 80%

SMILES: Cc1cc(C#N)cc(C(=O)NCC2CCCCC2)c1NC(=O)c1cc(Cn2nnc(C(F)(F)F)n2)nn1-c1ncccc1Cl [Example 93]
- chromatographic logP ([1]; log P): 3.96
- pest or weed control at 100 g/ha [3]: ≥ 80%

SMILES: Cc1cc(Cl)cc(C(=O)NC(C)C)c1NC(=O)c1cc(Cn2nnc(-c3ccc(Br)cc3)n2)nn1-c1ncccc1Cl
- Kill in %/7 days ([3]; 0.8 g/ha, 7 days): 0%
